Values of other authors as cited in patent US7208498B2, “Piperidino pyrimidine dipeptidyl peptidase inhibitors for the treatment of diabetes” (Merck & Co., Inc., priority 2002, dated 2007).

Legend:
cardiac allograft = conditions: rats; Transplantation 63, 1495–1500 (1997)
hematopoiesis = conditions: mouse, cyclophosphamide-induced neutropenia; WO 99/56753

For `CC(C)N1CCC(c2ccccc2)(c2ccccc2)CC1` [Prodipine, Pro-Pro-diphenyl-phosphonate], the cardiac allograft survival (cardiac allograft) is given as “double cardiac allograft survival in rats from day 7 to day 14”.

In the case of `CC(C)[C@H](N)C(=O)N1CCC[C@H]1B(O)O` [Val-Boro-Pro], the hematopoiesis (hematopoiesis) is listed as “stimulated hematopoiesis”.

In the case of `CC[C@H](C)[C@H](N)C(=O)N1CCC[C@H]1C(=O)N[C@H](C(=O)O)[C@@H](C)CC` [diprotin A], the “degradation of GRF in plasma to GRF[3-44]” value (GRF) is listed as “prevented”.
